The NIST ThermoML archive (doi:10.1021/je900244c)
Several values for one entry are separate records, joined by “and”; a condition that tells them apart may be missing. Identical values can stand only once.

Assay: xn = mol fraction of the nth substance listed
Details: 323.15 K, Gas, Buoyancy - hydrostatic balance with magnetic suspension - two sinkers

CC(C)C [2-methylpropane] + CCC
Details | mass density
660.6 kPa, x2 = 0.244 | 15.487 kg/m3
670 kPa, x2 = 0.244 | 15.744 kg/m3
670 kPa, x2 = 0.249 | 15.714 kg/m3
670.1 kPa, x2 = 0.249 | 15.719 kg/m3
679.7 kPa, x2 = 0.244 | 16.015 kg/m3
680.3 kPa, x2 = 0.249 | 15.998 kg/m3
680.4 kPa, x2 = 0.249 | 16.006 kg/m3
690.2 kPa, x2 = 0.244 | 16.31 kg/m3
690.2 kPa, x2 = 0.249 | 16.277 kg/m3 and 16.285 kg/m3
691.1 kPa, x2 = 0.244 | 16.328 kg/m3
700.1 kPa, x2 = 0.244 | 16.592 kg/m3
700.3 kPa, x2 = 0.249 | 16.571 kg/m3
700.4 kPa, x2 = 0.249 | 16.571 kg/m3
709.8 kPa, x2 = 0.244 | 16.868 kg/m3
710 kPa, x2 = 0.249 | 16.835 kg/m3
710.1 kPa, x2 = 0.249 | 16.843 kg/m3
710.3 kPa, x2 = 0.244 | 16.875 kg/m3
720.3 kPa, x2 = 0.249 | 17.129 kg/m3
720.4 kPa, x2 = 0.249 | 17.137 kg/m3
720.6 kPa, x2 = 0.244 | 17.177 kg/m3
730 kPa, x2 = 0.249 | 17.416 kg/m3
730.3 kPa, x2 = 0.249 | 17.408 kg/m3
730.4 kPa, x2 = 0.244 | 17.456 kg/m3
730.5 kPa, x2 = 0.244 | 17.456 kg/m3
739.8 kPa, x2 = 0.249 | 17.687 kg/m3
740 kPa, x2 = 0.249 | 17.697 kg/m3
740.4 kPa, x2 = 0.244 | 17.75 kg/m3
749.8 kPa, x2 = 0.244 | 18.022 kg/m3
750 kPa, x2 = 0.249 | 17.989 kg/m3 and 17.996 kg/m3
750.2 kPa, x2 = 0.244 | 18.029 kg/m3
759.7 kPa, x2 = 0.249 | 18.276 kg/m3
759.9 kPa, x2 = 0.249 | 18.276 kg/m3
761.2 kPa, x2 = 0.244 | 18.357 kg/m3
769.7 kPa, x2 = 0.244 | 18.602 kg/m3
769.9 kPa, x2 = 0.249 | 18.577 kg/m3
770 kPa, x2 = 0.249 | 18.577 kg/m3
770.4 kPa, x2 = 0.499 | 16.983 kg/m3
770.7 kPa, x2 = 0.499 | 16.982 kg/m3
780 kPa, x2 = 0.249 | 18.871 kg/m3
780.2 kPa, x2 = 0.499 | 17.239 kg/m3
780.3 kPa, x2 = 0.499 | 17.244 kg/m3
780.5 kPa, x2 = 0.249 | 18.894 kg/m3
790.6 kPa, x2 = 0.244 | 19.228 kg/m3
790.6 kPa, x2 = 0.499 | 17.513 kg/m3
799.9 kPa, x2 = 0.249 | 19.467 kg/m3
800.2 kPa, x2 = 0.499 | 17.765 kg/m3 and 17.769 kg/m3
810.5 kPa, x2 = 0.499 | 18.042 kg/m3
820.2 kPa, x2 = 0.499 | 18.299 kg/m3
820.4 kPa, x2 = 0.499 | 18.307 kg/m3
830.3 kPa, x2 = 0.499 | 18.572 kg/m3
840.3 kPa, x2 = 0.499 | 18.844 kg/m3
840.4 kPa, x2 = 0.499 | 18.848 kg/m3
850.3 kPa, x2 = 0.499 | 19.121 kg/m3
860.2 kPa, x2 = 0.499 | 19.387 kg/m3
860.4 kPa, x2 = 0.499 | 19.398 kg/m3
870.4 kPa, x2 = 0.499 | 19.669 kg/m3
879.9 kPa, x2 = 0.499 | 19.938 kg/m3
880.4 kPa, x2 = 0.499 | 19.948 kg/m3
890.2 kPa, x2 = 0.499 | 20.228 kg/m3
900.1 kPa, x2 = 0.499 | 20.506 kg/m3
900.6 kPa, x2 = 0.499 | 20.517 kg/m3
910.1 kPa, x2 = 0.499 | 20.784 kg/m3
920.3 kPa, x2 = 0.499 | 21.078 kg/m3
920.6 kPa, x2 = 0.499 | 21.087 kg/m3
930.3 kPa, x2 = 0.499 | 21.359 kg/m3
939.7 kPa, x2 = 0.499 | 21.637 kg/m3
939.8 kPa, x2 = 0.499 | 21.635 kg/m3
950.6 kPa, x2 = 0.499 | 21.949 kg/m3
960.2 kPa, x2 = 0.499 | 22.222 kg/m3
960.3 kPa, x2 = 0.499 | 22.242 kg/m3
970.3 kPa, x2 = 0.499 | 22.521 kg/m3
978.9 kPa, x2 = 0.499 | 22.767 kg/m3
979.6 kPa, x2 = 0.499 | 22.791 kg/m3
